Laboratory results as given in publication PMC6320938 (Molecules, 2018).

Assays:
[1] = in vivo; conditions: for AUC(0-t): AUC0–t; for AUC(0-inf): AUC0–∞; for MRT inf: MRT0–∞
Description: The validated UPLC-MS/MS method was used to measure atractylenolides I, II, and III, and atractyloside A simultaneously in rat plasma after oral administration of raw and wheat bran-processed Atractylodis Rhizoma at a dose of 3.75 g/kg. The integrated pharmacokinetics data were estimated by Drug and Statistics 3.0 (BioGuider Medicinal Technology Co. Ltd, Shanghai, China).
A UPLC system (Acquity, Waters, Milford, MA, USA) coupled with a mass spectrometer detector (XEVO-TQ-S, Waters) was used. The separation was performed on an Acquity UPLC BEH C18 column (Waters; 2.1 × 100 mm, 1.7 µm). The mobile phase consisted of acetonitrile (solution A) and ultrapure water with 0.1% methanoic acid (solution B). […] The mobile phase was delivered at a flow rate of 0.30 mL/min. The column and autosampler temperature were maintained at 40 and 10 °C, respectively. The injection volume was 2 µL and the eluent was detected by mass spectrometry with electrospray ionization (ESI) in positive scan mode. The optimized detector parameters were as follows: positive ESI with a capillary voltage of 3.0 kV; desolvation temperature of 400 °C; desolvation gas flow of 800 L/h, core gas flow of 150 L/h, and nebulizer gas flow of 7 bar. Selected multiple reaction monitoring (MRM), using the precursor to product ion combinations of m/z 233.3→187.2, 231.2→185.2, 249.2→231.2, 471.3→203.2, 151.9→110.16, was used to detect atractylenolides I, II, and III, atractyloside A, and the internal standard (IS), acetaminophen, respectively (Table 8).
Plasma samples were extracted by methanol precipitation. The plasma sample (200 µL) was spiked with IS solution (100 µL, 52 ng/mL), extracted with methanol (800 µL) by vortexing for 2 min, centrifuged at 17,108× g for 10 min, and then evaporated to dryness under a gentle stream of nitrogen. The residue was reconstituted in the mobile phase (100 µL), vortexed for 1 min, and centrifuged at 17,108× g for 10 min. Finally, the supernatant (3 µL) was injected into the UPLC-MS/MS system for analysis.
Ten rats were randomly divided into two groups (five per group). The two groups were orally administered raw Atractylodis Rhizoma at a dose of 3.75 g/kg (equal to 0.48, 0.6, 0.68, and 3.11 mg/kg of atractylenolides I, II, and III, and atractyloside A, respectively), and wheat bran-processed Atractylodis Rhizoma extract solution (equal to 0.46, 0.75, 0.56, and 3.03 mg/kg of atractylenolides I, II, and III, and atractyloside A, respectively). Plasma samples (0.3 mL) were collected in heparinized tubes from the orbital sinus at […], 0.25, 0.5, 1, 1.5,2, 3, 4, 6, 8, 10, and 12 h, and were then immediately centrifuged at 17,108× g for 10 min. The supernatant was transferred to clean test tubes and stored at −20 °C until analysis. Pharmacokinetic parameters, including the area under the blood concentration-time curve (AUC0–∞), elimination half-life (t1/2), apparent volume of distribution (Vd/F), and oral clearance (CL/F) were calculated by a noncompartmental method using Drug and Statistics 3.0 (Chinese Pharmacological Society, Shanghai, China). Other parameters were obtained directly from the experimental observations.
The pharmacokinetic parameters of atractylenolides I, II, and III, and atractyloside A were analyzed by using the one-way ANOVA test with SPSS 17.0 (SPSS Inc., Chicago, IL, USA) and linear regression analysis. The integrated concentrations at each time point for the four compounds were calculated based on the AUC weighting approach using equations (1)–(3). The weighting coefficient (Wj) and the total concentration of each compound (∑AUC0–∞) were calculated by: (1) w1=AUC0–∞/∑AUC0–∞ ∑AUC0–∞ = AUC0–∞ AT-I + AUC0–∞ AT-II + AUC0–∞ AT-III + AUC0–∞ atractyloside A(2)

[2] = tested on: ear edema induced by xylene; parameters: method as in PMID 19023804; conditions: ear edema induced by xylene in mice; cited from earlier work
[3] = tested on: rhubarb-induced spleen deficiency; parameters: method as in PMID 24815219; conditions: rhubarb-induced spleen deficiency in rats; cited from earlier work
[4] = tested on: HL-60 cells; conditions: via Cu, Zn-superoxide dismutase inhibition; cited from earlier work
[5] = Short-term stability in rat plasma at room temperature; format: in vitro ADME; conditions: for RE: room temperature stability; for 0 h Measured C / 4 h Measured C / 6 h Measured C: room temperature
Description: The stabilities of atractylenolides I, II, and III, and atractyloside A in rat plasma were evaluated at three different QC concentrations using six replicates under two conditions, including at 25 °C for 6 h, and three freeze and thaw cycles. Unextracted QC samples of the four compounds at low, medium, and high concentrations were kept at ambient temperature (25 °C) for 6 h to determine the short-term stability of the compounds in rat plasma. The samples were processed and analyzed, and then the concentrations were compared with the nominal values of the QC samples. The stabilities of the plasma samples after three freeze and thaw cycles were determined. In each cycle, the QC samples were stored at −20 °C for 24 h and thawed unassisted at room temperature. When completely thawed, the samples were refrozen within 24 h. The cycle was repeated three times and the samples were analyzed after the third cycle. Stability was assessed by comparing the mean concentration of the stored QC samples with the mean concentration of freshly prepared QC samples.

[6] = Freeze-thaw stability in rat plasma; format: in vitro ADME; conditions: for One Time Measured C / Two Time Measured C / Zero Time Measured C: freeze-thaw (−20 °C / room temperature); for RE: freeze-thaw stability
Description: […] Unextracted QC samples of the four compounds at low, medium, and high concentrations were kept at ambient temperature (25 °C) for 6 h to determine the short-term stability of the compounds in rat plasma. The samples were processed and analyzed, and then the concentrations were compared with the nominal values of the QC samples. […] In each cycle, the QC samples were stored at −20 °C for 24 h and thawed unassisted at room temperature. When completely thawed, the samples were refrozen within 24 h. […] Stability was assessed by comparing the mean concentration of the stored QC samples with the mean concentration of freshly prepared QC samples.

[7] = parameters: method as in PMID 27019565; conditions: oral raw vs wheat bran-processed Atractylodis Rhizoma; cited from earlier work
[8] = rat, in vivo, po, 3.75 g/kg, rat plasma, oral raw Atractylodis Rhizoma 3.75 g/kg, mean ± SD, n = 5
[9] = rat, in vivo, po, 3.75 g/kg, rat plasma, oral wheat bran-processed Atractylodis Rhizoma 3.75 g/kg, mean ± SD, n = 5
[10] = high QC: added 140 (atractylenolide I), 200 (II, III), 172 (atractyloside A) ng/mL
[11] = low QC: added 5.6 (atractylenolide I), 8 (II, III), 6.88 (atractyloside A) ng/mL
[12] = medium QC: added 28 (atractylenolide I), 40 (II, III), 17.2 (atractyloside A) ng/mL

SMILES: C=C1CCC[C@]2(C)C[C@]3(O)OC(=O)C(C)=C3C[C@@H]12 [Atractylenolide III]
- AUC0–t ([1]; rat, in vivo, po, 3.75 g/kg): 284.83 ± 32.94 * h·μg/L
- Cmax ([1]; rat, in vivo, po, 3.75 g/kg): 113.10 ± 19.04 ng/mL
- MRT0–∞ ([1]; rat, in vivo, po, 3.75 g/kg): 3.07 ± 0.31 h
- t1/2 ([1]; rat, in vivo, po, 3.75 g/kg): 1.81 ± 0.79 h
- AUC(0-t) ([1]; rat, in vivo, po, 3.75 g/kg): 231 ± 76.8 ng·h/mL
- AUC(0-inf) ([1]; rat, in vivo, po, 3.75 g/kg): 233 ng·h/mL
- Cmax ([1]; rat, in vivo, po, 3.75 g/kg, Cmax): 87 ± 17 ng/mL
- MRT inf ([1]; rat, in vivo, po, 3.75 g/kg): 3.48 ± 0.29 h
- Tmax ([1]; rat, in vivo, po, 3.75 g/kg): 1 h
- half-life ([1]; rat, in vivo, po, 3.75 g/kg, t1/2): 1.56 ± 0.61 h
- anti-inflammatory activity [2]: inhibition of ear edema

SMILES: C=C1CCC[C@]2(C)C=C3OC(=O)C(C)=C3C[C@@H]12 [Atractylenolide I]
- anti-inflammatory activity [2]: inhibition of ear edema
- treatment of spleen deficiency [3]: can be used to treat rhubarb-induced spleen deficiency
- anticancer activity (apoptosis) [4]: inducing apoptosis

SMILES: CC(C)(OC1OC(CO)C(O)C(O)C1O)C1CCC(O)(CO)C2CC(=O)C(C)(O)C2C1 (stereo not drawn) [Atractyloside A]
- Cmax ratio, wheat bran-processed group vs raw group ([1]; rat plasma, oral 3.75 g/kg): 1.20 fold
- AUC(0-t) [1, 8]: 138 ± 60.1 ng·h/mL
- AUC(0-t) [1, 9]: 307 ± 73.8 ng·h/mL
- AUC(0-inf) ([1]; rat, in vivo, po, 3.75 g/kg, Table 6, rat plasma, oral raw Atractylodis Rhizoma 3.75 g/kg): 167 ng·h/mL
- AUC(0-inf) ([1]; rat, in vivo, po, 3.75 g/kg, Table 6, rat plasma, oral wheat bran-processed Atractylodis Rhizoma 3.75 g/kg): 325 ng·h/mL
- AUC(0-inf) [1, 8]: 167 ± 90.1 ng·h/mL
- AUC(0-inf) [1, 9]: 325 ± 72.1 ng·h/mL
- Cmax ([1]; rat, in vivo, po, 3.75 g/kg, Cmax, rat plasma, oral raw Atractylodis Rhizoma 3.75 g/kg, mean ± SD, n = 5): 57.8 ± 21.6 ng/mL
- Cmax ([1]; rat, in vivo, po, 3.75 g/kg, Cmax, rat plasma, oral wheat bran-processed Atractylodis Rhizoma 3.75 g/kg, mean ± SD, n = 5): 69.4 ± 8.29 ng/mL
- MRT inf [1, 8]: 6.05 ± 2.58 h
- MRT inf [1, 9]: 4.87 ± 0.84 h
- Tmax [1, 8]: 0.95 ± 0.11 h
- Tmax [1, 9]: 1.5 h
- half-life ([1]; rat, in vivo, po, 3.75 g/kg, t1/2, rat plasma, oral raw Atractylodis Rhizoma 3.75 g/kg, mean ± SD, n = 5): 3.95 ± 2.22 h
- half-life ([1]; rat, in vivo, po, 3.75 g/kg, t1/2, rat plasma, oral wheat bran-processed Atractylodis Rhizoma 3.75 g/kg, mean ± SD, n = 5): 2.55 ± 0.98 h
- RE [5, 10]: −0.17%
- RE [5, 11]: −6.2%
- RE [5, 12]: −0.85%
- 0 h Measured C [5, 10]: 172.31 ng/mL
- 4 h Measured C [5, 10]: 171.50 ng/mL
- 6 h Measured C [5, 10]: 171.32 ng/mL
- 0 h Measured C [5, 11]: 6.81 ng/mL
- 4 h Measured C [5, 11]: 6.41 ng/mL
- 6 h Measured C [5, 11]: 6.14 ng/mL
- 0 h Measured C [5, 12]: 17.16 ng/mL
- 4 h Measured C [5, 12]: 17.02 ng/mL
- 6 h Measured C [5, 12]: 16.98 ng/mL
- One Time Measured C [6, 10]: 171.48 ng/mL
- Two Time Measured C [6, 10]: 171.65 ng/mL
- Zero Time Measured C [6, 10]: 172.73 ng/mL
- One Time Measured C [6, 11]: 6.38 ng/mL
- Two Time Measured C [6, 11]: 6.02 ng/mL
- Zero Time Measured C [6, 11]: 6.39 ng/mL
- One Time Measured C [6, 12]: 17.36 ng/mL
- Two Time Measured C [6, 12]: 17.02 ng/mL
- Zero Time Measured C [6, 12]: 17.86 ng/mL
- RE [6, 10]: −0.03%
- RE [6, 11]: −8.96%
- RE [6, 12]: 1.24%

SMILES: C/C=C/C#CC#C/C=C/c1ccco1 [atractylodin]
- effect of stir-frying the rhizome with wheat bran on absorption [7]: promoted and accelerated the absorption
